According to PMC10779433, “Bidirectional Allosteric Coupling between PIP2 Binding and the Pore of the Oncochannel TRPV6” (International Journal of Molecular Sciences, 2024):
Where two headings read alike, the source gives them in different places. Residues, ends and D or L forms follow the SMILES beside them. *: point of attachment. Palmitoyl = CCCCCCCCCCCCCCCC(=O)*

Assays:
TRPV6 R470A W583F [1] = experiment: Whole-cell patch clamp, TRPV6 R470A W583F; assay type: cell-based, human; conditions: HEK293 cells; 10 μM pal-PIP2 peptide; Figure 6A; compared with W583F
Excerpt: (§1) N-terminally TagRFP-labeled human TRPV6 (725 aa) was kindly provided by R. Bhardwaj and M. Hediger (University of Bern, Bern, Switzerland). This variant is translated from the first ATG codon and thus deviates from the non-ATG-initiated protein which is expressed in vivo (accession number NM_018646.6) by lacking 40 amino acids of the very N-terminus. For N-terminal labeling with EYFP, TRPV6 was cloned into pEYFP-C1 (Clontech) via EcoRI and SacII restriction sites. Mutations (F468A, R470A, F472A, K484A/Q, G488R, R492A/Q, I575A, G579A, D580A/K, H582A, W583A/F, H587A, R589A, W593A, R632A/Q, R470A, W583F) were introduced using the QuickChange XL site-directed mutagenesis kit (Stratagene, San Diego, CA, USA) and Pfu DNA Polymerase (Promega, Madison, WI, USA). pTagRFP-hTRPV6 I575A was kindly provided by the lab of M. Hediger (University of Bern, Bern, Switzerland). Forward and reverse primers for site-directed mutagenesis were synthesized by Eurofins genomics GmbH (Wien, Vienna, Austria). Intactness of the constructs in terms of sequence was confirmed by sequencing (Microsynth Austria GmbH, Wien, Vienna, Austria; Eurofins genomics GmbH, Wien, Vienna, Austria). […]
(§2) Electrophysiological experiments were performed at 20 °C to 24 °C in whole-cell recording configurations of the patch clamp technique. […] The liquid junction potential was determined as 12 mV; the voltages were not adjusted. […]

TRPV6 R470A [2] = experiment: Whole-cell patch clamp, TRPV6 R470A; assay type: cell-based, human; conditions: HEK293 cells; 10 μM pal-PIP2 peptide; p < 0.05; Figure 4D
Excerpt: as §1, §2

TRPV6 I575A = experiment: NFAT screen, TRPV6 I575A; assay type: cell-based, human; conditions: HEK293 cells; 5 μM cis-22a, 2 h, vs DMSO
Procedure: (§3) N-terminally TagRFP-labeled human TRPV6 (725 aa) was kindly provided by R. Bhardwaj and M. Hediger (University of Bern, Bern, Switzerland). This variant is translated from the first ATG codon and thus deviates from the non-ATG-initiated protein which is expressed in vivo (accession number NM_018646.6) by lacking 40 amino acids of the very N-terminus. For N-terminal labeling with EYFP, TRPV6 was cloned into pEYFP-C1 (Clontech) via EcoRI and SacII restriction sites. […]
(§4) After incubation, cover slips were carefully rinsed with phenol red-free DMEM supplemented with the compound and dosage corresponding to the previous incubation, which was then also present during imaging. […] Subcellular NFAT localization of TRPV6 expressing cells was again monitored on an Axiovert 135 inverted microscope (Zeiss, Oberkochen, Germany), as described in more detail before. […] Images were analyzed using Matlab2018a, differentiating between three cell populations based on the ratio of CFP emission intensity originating from the nucleus and the cytosol, similar to Schober et al. (2019).

TRPV6 R470A W583F [3] = experiment: NFAT screen, TRPV6 R470A W583F; assay type: cell-based, human; conditions: HEK293 cells; 5 μM cis-22a, 2 h
Procedure: as §3, §4

TRPV6 G579A = experiment: NFAT screen, TRPV6 G579A; assay type: cell-based, human; conditions: HEK293 cells; 5 μM cis-22a, 2 h; homogeneous localization preferred already without cis-22a
Procedure: as §3, §4

TRPV6 R470A W583F [4] = system: TRPV6 R470A W583F; set-up: method as in PMID 33246965; conditions: ref [47], cited from earlier work
TRPV6 D580A = experiment: NFAT screen, TRPV6 D580A; assay type: cell-based, human; conditions: HEK293 cells; 5 μM cis-22a, 2 h, vs DMSO
Procedure: as §3, §4

TRPV6 R470A [5] = conditions: HEK293 cells, ref [47], cited from earlier work
Excerpt: (§5) Thereby, some mutants which were investigated in our previous publications are shown again to simplify comparison with other treatments.

TRPV6 K484A = conditions: HEK293 cells, ref [62], cited from earlier work
Excerpt: as §5

SMILES	resistance to inhibition by pal-PIP2 peptide (TRPV6 R470A W583F [1])	sensitivity to peptide-based PIP2 sequestration vs WT (TRPV6 R470A [2])	change of nuclear NFAT localization (TRPV6 I575A)	NFAT localization patterns (TRPV6 R470A W583F [3])	change of nuclear NFAT localization (TRPV6 G579A)	inhibition by cis-22a in electrophysiological measurements (TRPV6 R470A W583F [4]; HEK293 cells, 0.1 and 10 μM cis-22a, n=6, Figure S6B)	resistance to cis-22a vs single mutants (TRPV6 R470A W583F [4]; R470A W583F, especially at the high blocker concentration)	inhibition by cis-22a (in words) (TRPV6 R470A W583F [4]; R470A W583F)	change of nuclear NFAT localization (TRPV6 D580A)	current inhibition vs TRPV6 WT (TRPV6 R470A [5]; 0.1 μM cis-22a)	current inhibition vs TRPV6 WT (TRPV6 R470A [5]; 10 μM cis-22a, after 0.1 μM)	current inhibition vs TRPV6 WT (TRPV6 K484A; 0.1 μM cis-22a)	current inhibition vs TRPV6 WT (TRPV6 K484A; 10 μM cis-22a, after 0.1 μM)
CCCCCCCCCCCCCCCC(=O)N[C@@H](Cc1c[nH]cn1)C(=O)N[C@@H](CCCNC(=N)N)C(=O)N[C@@H](CCC(N)=O)C(=O)N[C@@H](CCCCN)C(=O)N[C@@H](Cc1c[nH]cn1)C(=O)N[C@@H](Cc1ccccc1)C(=O)N[C@@H](CCC(=O)O)C(=O)N[C@@H](CCCCN)C(=O)N[C@@H](CCCNC(=N)N)C(=O)N[C@@H](CCCNC(=N)N)C(N)=O [pal-PIP2 peptide] (Palmitoyl-HRQKHFEKRR-NH2)	regained significant resistance to inhibition	significantly reduced sensitivity	–	–	–	–	–	–	–	–	–	–	–
Cc1cccc(C2CCC(N3CCN(c4cccnc4)CC3)CC2)c1.O=C(O)C(F)(F)F (stereo not drawn) [cis-22a]	–	–	not significantly changed	unable to change localization patterns	further significant reduction in the proportion of cells showing nucleus-resident NFAT	just modest inhibition	considerably higher resistance	very weak inhibition	not significantly changed	significantly reduced	significantly reduced inhibition	significantly reduced	significantly reduced inhibition
